Four compounds from publication PMC7939381, “MMP activation–associated aminopeptidase N reveals a bivalent 14-3-3 binding motif” (The Journal of Biological Chemistry, 2021) can be followed below.

Where a SMILES comes first, the peptide text is derived from it. [ ]: non-standard residue; d: D form. pT = C[C@@H](OP(=O)(O)O)[C@H](N)C(=O)O; pS = N[C@@H](COP(=O)(O)O)C(=O)O

The target of one experiment is T1, 14-3-3β/α (Homo sapiens, UniProt P31946).
T1 construct: N-terminally His6-tagged 14-3-3 full-length proteins were expressed with heterologous bacterial expression; made in house
T1 sequence (P31946 1-246): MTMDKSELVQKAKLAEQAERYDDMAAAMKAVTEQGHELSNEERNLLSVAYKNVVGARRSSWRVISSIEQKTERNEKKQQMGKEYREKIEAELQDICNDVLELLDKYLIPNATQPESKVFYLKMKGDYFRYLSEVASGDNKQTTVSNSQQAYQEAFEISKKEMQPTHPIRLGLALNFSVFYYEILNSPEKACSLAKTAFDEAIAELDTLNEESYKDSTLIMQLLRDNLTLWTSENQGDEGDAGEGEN
Put plainly: direct binding FP assay, 14-3-3β/α. The following applies: FITC-labeled peptide, Fig. 2C and Fig. S1. Here is the method: (§1) For the FP assay, the 14-3-3 proteins were diluted to a protein-specific start concentration in FP buffer (10 mM HEPES, pH 7.4, 150 mM NaCl, 2 mM DTT, 0.01% Tween 20). DMSO stocks of peptides were diluted in FP buffer to a concentration of 30 nM. For the assay, 10 μl of FP buffer were pipetted in 20 wells of a 384-well Corning black round bottom plate. A dilution series with 10 μl of protein solution was performed, and 5 μl of peptide solution was added to each well for a final volume of 15 μl. The plate was incubated for 60 min at room temperature. Measurement was performed at 25 °C in a Tecan Spark20M plate reader (λex = 470 nm, λem = 525 nm). Data analysis was performed with GraphPad Prism (version 5.03), and KD values were determined via a nonlinear regression fit of dose-response curves with variable slope (four parameters).

Another experiment deals with His6-14-3-3β/α. Put plainly: pulldown of His6-14-3-3β/α from E. coli cell lysate with biotinylated peptides. The note with it: biotinylated peptide on streptavidin beads; NTA-Atto488 stained SDS-PAGE, Fig. S2B. Format: binding, human. The procedure:
(§2) 14-3-3–overexpressing E. coli cell lysate was prepared by lysing E. coli cells via sonication in pulldown buffer and removing cell debris by ultracentrifugation (53,350 rcf, 45 min, 4 °C). 24 nmol of Streptavidin Sepharose High Performance beads (GE Healthcare) were equilibrated with pulldown buffer (50 mM HEPES, pH 7.4, 250 mM NaCl, 20 mM MgCl2) and incubated with 24 nmol of biotin-1, biotin-6, or no peptide for 45 min on ice. Afterward, the beads were washed three times with pulldown buffer. Subsequently, the beads were incubated for 120 min in the prepared cell lysate. After incubation, beads were washed three times with pulldown buffer and split in half either for direct SDS-PAGE or for competition analysis, respectively. For competition, beads incubated with biotin-1 were incubated with 96 nmol of acetylated peptide 1 for 60 min and washed three times with pulldown buffer. For SDS-PAGE, 6 nmol of beads were added per lane on a Tris-Tricine ([52]) gel and run for 120 min at 150 V. After electrophoresis, gel was fixated for 90 min in a solution of 50% water, 40% EtOH, and 10% acetic acid and consequently washed two times for 30 min in water. Staining of the His6-tagged proteins in the gel was performed in a 1:1000 dilution of a 1 μg/μl solution of NTA-Atto488 (Sigma–Aldrich) for 60 min. Access stain was removed by two washing steps, each 60 min, in water. […]

The next experiment concerns His6-14-3-3η. Put plainly: pulldown of His6-14-3-3η from E. coli cell lysate with biotinylated peptides. The format is binding, human. The following applies: biotinylated peptide on streptavidin beads; NTA-Atto488 stained SDS-PAGE, Fig. 2E. The procedure:
as §2

The target of experiment [1] is T2, 14-3-3η (Homo sapiens, UniProt Q04917).
T2 construct: N-terminally His6-tagged 14-3-3 full-length proteins were expressed with heterologous bacterial expression; made in house
T2 sequence (Q04917 1-246): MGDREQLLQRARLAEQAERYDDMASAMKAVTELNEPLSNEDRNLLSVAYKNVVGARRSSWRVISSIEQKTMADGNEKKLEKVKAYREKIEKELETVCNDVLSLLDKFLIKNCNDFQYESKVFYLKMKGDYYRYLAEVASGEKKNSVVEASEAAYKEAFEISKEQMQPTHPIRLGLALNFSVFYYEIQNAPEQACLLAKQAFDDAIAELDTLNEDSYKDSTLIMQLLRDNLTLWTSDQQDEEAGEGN
The experiment in a line: isothermal titration calorimetry (ITC) with 14-3-3η. The format is binding. The note with it: T = 298 K; peptide per 14-3-3 protomer; mean ± S.D., n = 3. Here is the method:
The ITC experiments were performed on an automated MicroCal iTC200 (Malvern Panalytical). To prepare 14-3-3 proteins for ITC measurements, a buffer exchange to ITC buffer (50 mM HEPES, pH 7.4, 250 mM NaCl, 20 mM MgCl2) was performed on a Superdex 75 10/300 GL column (ÄKTA Pure FPLC system, GE Healthcare). For peptides 1, 7, and 17, a 500 μM solution of protein was titrated to a 50 μM solution of peptide in 18 steps (2-μl volume in 4 s, 180-s spacing) at 25 °C. For peptide 11, a 250 μM solution of protein was titrated to a 12.5 μM solution of peptide with the settings mentioned before. The reference power was set to […], and the stirring speed was set to 750 rpm. Analysis was performed using MicroCal ITC-ORIGIN analysis software.

Experiment [2] concerns the target T2, 14-3-3η. The experiment in a line: direct binding FP assay, 14-3-3η. The procedure: as §1
A further experiment deals with T3, 14-3-3σ (Homo sapiens, UniProt P31947).
T3 construct: N-terminally His6-tagged 14-3-3 full-length proteins were expressed with heterologous bacterial expression; made in house
T3 sequence (P31947 1-248): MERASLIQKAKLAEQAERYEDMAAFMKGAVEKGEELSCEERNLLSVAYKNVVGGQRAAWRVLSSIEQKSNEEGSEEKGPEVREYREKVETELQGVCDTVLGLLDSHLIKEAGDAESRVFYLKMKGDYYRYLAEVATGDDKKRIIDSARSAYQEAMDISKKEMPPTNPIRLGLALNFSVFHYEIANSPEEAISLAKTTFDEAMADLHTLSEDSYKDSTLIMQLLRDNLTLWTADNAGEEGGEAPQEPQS
The experiment in a line: direct binding fluorescence polarization (FP) assay, 14-3-3σ. The note with it: FITC-labeled peptide; Fig. 2A. Here is the method:
as §1

Take `CC(=O)N[C@@H](CC(N)=O)C(=O)N[C@@H](CCCCN)C(=O)N[C@@H](CC(N)=O)C(=O)N[C@@H](C)C(=O)N[C@@H](CC(N)=O)C(=O)N[C@@H](COP(=O)(O)O)C(=O)N[C@@H](CO)C(=O)N1CCC[C@H]1C(=O)N[C@H](C(=O)O)C(C)C` [compound 1] (Ac-NKNAN[pS]SPV-OH): on 14-3-3β/α, the “relative affinity of 14-3-3β/α compared with 14-3-3σ (relative affinity = 1)” value was determined as 5.7 fold. Besides, in the experiment with His6-14-3-3β/α, the “pulldown of His6-14-3-3β/α (in words)” value is recorded as “binds specifically”. In addition, the “pulldown of His6-14-3-3η (in words)” value in the experiment on His6-14-3-3η is “binds specifically”. Besides, the “binding stoichiometry N (ITC, 14-3-3η)” value on 14-3-3η [1] was determined as 1.05 ± 0.02. For the same compound, the “relative affinity of 14-3-3η compared with 14-3-3σ (relative affinity = 1)” value at 14-3-3η [2] (FP assay, FITC-labeled peptide, Fig. 2C and Fig. S1) worked out at 18.6 fold.
For the compound `CC(=O)N[C@@H](CCC(=O)O)C(=O)N[C@@H](CCCCN)C(=O)N[C@@H](CC(N)=O)C(=O)N[C@@H](CCCCN)C(=O)N[C@@H](CC(N)=O)C(=O)N[C@@H](C)C(=O)N[C@@H](CC(N)=O)C(=O)N[C@@H](COP(=O)(O)O)C(=O)N[C@@H](CO)C(=O)N1CCC[C@H]1C(=O)N[C@H](C(=O)N[C@@H](C)C(=O)N[C@@H](CO)C(=O)N[C@H](C(=O)N[C@H](C(=O)N1CCC[C@H]1C(=O)N[C@@H](CO)C(=O)N[C@@H](C)C(=O)N[C@@H](CO)C(=O)N[C@@H](C)C(=O)N[C@H](C(=O)N[C@H](C(=O)N[C@@H](CC(N)=O)C(=O)N1CCC[C@H]1C(=O)N[C@@H](C)C(=O)N[C@@H](CO)C(=O)N[C@@H](C)C(=O)N[C@H](C(=O)N[C@H](C(=O)N[C@@H](CC(C)C)C(=O)N[C@@H](CC(=O)O)C(=O)N[C@@H](CCC(N)=O)C(=O)N[C@@H](CO)C(=O)N[C@@H](CCCCN)C(=O)N[C@@H](C)C(=O)N[C@@H](Cc1c[nH]c2ccccc12)C(=O)N[C@@H](CC(N)=O)C(=O)N[C@@H](CCCNC(=N)N)C(=O)O)[C@@H](C)O)[C@@H](C)O)[C@@H](C)O)[C@@H](C)O)[C@@H](C)O)[C@@H](C)O)C(C)C` [compound 7] (Ac-EKNKNAN[pS]SPVASTTPSASATTNPASATTLDQSKAWNR-OH), the “binding stoichiometry N (ITC, 14-3-3η)” value on 14-3-3η [1] came to 1.13 ± 0.18.
On to “KNANSpSPVA [compound 6, APN 39–47 pSer^44 peptide KNANSpSPVA, negative control]”, for which the “binding toward 14-3-3σ in direct FP assay (in words)” value at 14-3-3σ is “did not show any binding”.
On to `CC(=O)N[C@@H](CCC(=O)O)C(=O)N[C@@H](CCCCN)C(=O)N[C@@H](CC(N)=O)C(=O)N[C@@H](CCCCN)C(=O)N[C@@H](CC(N)=O)C(=O)N[C@@H](C)C(=O)N[C@@H](CC(N)=O)C(=O)N[C@@H](COP(=O)(O)O)C(=O)N[C@@H](CO)C(=O)N1CCC[C@H]1C(=O)N[C@H](C(=O)N[C@@H](C)C(=O)N[C@@H](CO)C(=O)N[C@H](C(=O)N[C@H](C(=O)N1CCC[C@H]1C(=O)N[C@@H](CO)C(=O)N[C@@H](C)C(=O)N[C@@H](CO)C(=O)N[C@@H](C)C(=O)N[C@H](C(=O)N[C@H](C(=O)N[C@@H](CC(N)=O)C(=O)N1CCC[C@H]1C(=O)N[C@@H](C)C(=O)N[C@@H](CO)C(=O)N[C@@H](C)C(=O)N[C@H](C(=O)N[C@H](C(=O)N[C@@H](CC(C)C)C(=O)N[C@@H](CC(=O)O)C(=O)N[C@@H](CCC(N)=O)C(=O)N[C@@H](CO)C(=O)N[C@@H](CCCCN)C(=O)N[C@@H](C)C(=O)N[C@@H](Cc1c[nH]c2ccccc12)C(=O)N[C@@H](CC(N)=O)C(=O)N[C@@H](CCCNC(=N)N)C(=O)O)[C@@H](C)O)[C@@H](C)OP(=O)(O)O)[C@@H](C)O)[C@@H](C)O)[C@@H](C)O)[C@@H](C)O)C(C)C` [compound 11] (Ac-EKNKNAN[pS]SPVASTTPSASATTNPASA[pT]TLDQSKAWNR-OH), for which the “binding stoichiometry N (ITC, 14-3-3η)” value on 14-3-3η [1] is recorded as 0.58 ± 0.01. In addition, the “increase in overall affinity of 7 versus 11 (14-3-3η, FP)” value at 14-3-3η [2] (pThr^63 combined with site 1, Fig. 4A and Fig. S3) is around 500 fold.
